# Laboratory results as given in PubChem BioAssay AID1963841 (Molecular Pharmacology Branch, DTP, NCI, 2024).
# Where “and” joins values, the source holds several entries; their conditions need not be identical. Equal values may be shown once.
# Test system: 439559-082-T-J2-PDC spheroid viability
# Assay: Anticancer human tumor 439559-082-T-J2-PDC patient-derived colon adenocarcinoma cell line growth inhibition [POLQ]
# Conditions: spheroids with HUVEC and MSC; for viability, T/C: stronger effect = lower value
# Description: Multicellular complex tumor spheroid response to Polymerase (POL) inhibitors (novobiocin, ART-558, RP6685) in combination with a variety of drugs and investigational agents in selected tumor cell lines
# The POL inhibitors (novobiocin, ART-558, and RP6685) were evaluated both individually and in combination with standard of care and investigational anticancer small molecules within a complex spheroid model of solid tumors. . Complex spheroids include a stromal component modeled by human endothelial cells (HUVEC) and fibroblasts modeled by human mesenchymal stem cells (MSCs). The concentration ranges selected for each drug and investigational agent were based upon clinically achievable concentrations if the clinical Cmax of the agent was known.
# Compounds. The drugs and investigational agents: novobiocin (NSC847541), ART-558 (NSC835418), RP-6685 (NSC848927), peposertib (NSC802822), ceralasertib (NSC780249), elimusertib (NSC800525), camonsertib (NSC841442), AZD-1390 (NSC803789), olaparib (NSC753686), talazoparib (NSC767125), rucaparib (NSC756644), sotorasib (NSC818433), MRTX-1133 (NSC836407), SN-38 (NSC673596), topotecan (NSC609699), epotoside (NSC141540), doxorubicin (NSC123127), gemcitabine (NSC613327), 5-fluorouracil (NSC19893), paclitaxel (NSC125973), vemurafenib (NSC761431), MSA-2 (NSC828583), SN-011 (NSC837082), adavosertib (NSC754352), prexasertib (NSC758257), carboplatin (NSC241240) and oxaliplatin (NSC266046), were obtained from the National Cancer Institute (NCI) Developmental Therapeutics Program Chemical Repository (21). The FDA-approved anticancer drug set is available from the Developmental Therapeutics Program at https://dtp.cancer.gov/organization/dscb/obtaining/. […] The stock solutions were prepared in dimethyl sulfoxide (DMSO, Sigma-Aldrich, St. Louis, MO, cat. D2650), except for the platinum compounds which were prepared in saline (Quality Biological, Gaithersburg, MD, cat. 114-055-101), at 800-fold the tested concentration and stored at -70 degrees C prior to their use. All drugs and investigational agents were tested over a range starting from a high concentration at or near the clinical Cmax and decreasing in half-log increments. If the clinical Cmax for an agent had not been determined, the highest concentration tested was 10 microM, except for SN-38, which was tested at a high concentration of 1 microM.
# Cell Culture. All cells were maintained in an incubator at 37 degrees C and 5% CO2 with 95% humidity. The PDC lines were cultured according to standard operating procedures established by the NCI PDMR (https://pdmr.cancer.gov). Table 3 of the manuscript, lists the cell lines along with the number of the three cell types plated to form the mct-spheroids and media for tumor cell growth. After thawing, all PDC lines, except 997537-175-T-J1-PDC and 415267-285-R-J2-PDC, were cultured in Matrigel-coated flasks prepared with a working solution of 1X Ham's F-12 nutrient mix, without supplementation (Thermo Fisher Scientific, cat. 11765054), 100 U/mL penicillin-streptomycin (Thermo Fisher Scientific, cat. 15140122), and 2.5% Matrigel (Corning Inc., Corning, NY, cat. 354248) for the first three passages. The two PDC lines 997537-175-T-J1-PDC and 415267-285-R-J2-PDC were cultured on uncoated flasks. The 857933-349-R-J2-PDC line was cultured in 6C/Colon 1B media containing advanced DMEM/F-12 (Thermo Fisher Scientific, cat. 12634028), 10 mM HEPES (Thermo Fisher Scientific, cat. 15630080), 1X GlutaMAX supplement (Thermo Fisher Scientific, cat. 35050061), 0.1 mg/mL primocin (InvivoGen, San Diego, CA, cat. ant-pm-2), 10% defined fetal bovine serum, heat inactivated (HyClone Laboratories Inc., Logan, UT, cat. SH30070.03HI), 50% L-WRN conditioned media (ATCC, cat. CRL-3276), 1.25 mM N-Acetyl-L-cysteine (Sigma-Aldrich, cat. A9165), 10 mM nicotinamide (Sigma-Aldrich, cat. N0636), 1X B-27 supplement (Thermo Fisher Scientific, cat. 17504044), 1X N-2 supplement (Thermo Fisher Scientific, cat. […]
# [1] = curve of first compound, second compound 0.0316 µM
# [2] = curve of first compound, second compound 0.1 µM
# [3] = curve of first compound, second compound 0.316 µM
# [4] = curve of first compound, second compound 1 µM
# [5] = curve of first compound, second compound 3.16 µM
# [6] = curve of first compound, second compound 10 µM
# [7] = second compound 0.0316 µM, first compound 0.0316 µM
# [8] = second compound 0.0316 µM, first compound 0.1 µM
# [9] = second compound 0.0316 µM, first compound 0.316 µM
# [10] = second compound 0.0316 µM, first compound 1 µM
# [11] = second compound 0.0316 µM, first compound 3.16 µM
# [12] = second compound 0.0316 µM, first compound 10 µM
# [13] = second compound 0.1 µM, first compound 0.0316 µM
# [14] = second compound 0.1 µM, first compound 0.1 µM
# [15] = second compound 0.1 µM, first compound 0.316 µM
# [16] = second compound 0.1 µM, first compound 1 µM
# [17] = second compound 0.1 µM, first compound 3.16 µM
# [18] = second compound 0.1 µM, first compound 10 µM
# [19] = second compound 0.316 µM, first compound 0.0316 µM
# [20] = second compound 0.316 µM, first compound 0.1 µM
# [21] = second compound 0.316 µM, first compound 0.316 µM
# [22] = second compound 0.316 µM, first compound 1 µM
# [23] = second compound 0.316 µM, first compound 3.16 µM
# [24] = second compound 0.316 µM, first compound 10 µM
# [25] = second compound 1 µM, first compound 0.0316 µM
# [26] = second compound 1 µM, first compound 0.1 µM
# [27] = second compound 1 µM, first compound 0.316 µM
# [28] = second compound 1 µM, first compound 1 µM
# [29] = second compound 1 µM, first compound 3.16 µM
# [30] = second compound 1 µM, first compound 10 µM
# [31] = second compound 3.16 µM, first compound 0.0316 µM
# [32] = second compound 3.16 µM, first compound 0.1 µM
# [33] = second compound 3.16 µM, first compound 0.316 µM
# [34] = second compound 3.16 µM, first compound 1 µM
# [35] = second compound 3.16 µM, first compound 3.16 µM
# [36] = second compound 3.16 µM, first compound 10 µM
# [37] = second compound 10 µM, first compound 0.0316 µM
# [38] = second compound 10 µM, first compound 0.1 µM
# [39] = second compound 10 µM, first compound 0.316 µM
# [40] = second compound 10 µM, first compound 1 µM
# [41] = second compound 10 µM, first compound 3.16 µM
# [42] = second compound 10 µM, first compound 10 µM
# 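Note: spheroids exposed to compounds for seven days before readout.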
# 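Throughout, for viability, T/C: 100% = DMSO vehicle control viability.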
smiles,measurement,setting,value
CC(C)n1c(=O)n(C)c2cnc3cc(F)c(-c4ccc(OCCCN5CCCCC5)nc4)cc3c21 + Cc1cccc(N(C)C(=O)C2C(O)CCN2c2nc(C)cc(C(F)(F)F)c2C#N)c1,IC50,[1],> 10000 nM
same,IC50,[2],> 10000 nM
same,IC50,[3],> 10000 nM
same,IC50,[4],> 10000 nM
same,IC50,[5],> 10000 nM
same,IC50,[6],> 10000 nM
same,"viability, T/C",[7],103%
same,"viability, T/C",[8],106%
same,"viability, T/C",[9],109%
same,"viability, T/C",[10],116%
same,"viability, T/C",[11],99.8%
same,"viability, T/C",[12],93.9%
same,"viability, T/C",[13],115%
same,"viability, T/C",[14],105%
same,"viability, T/C",[15],107%
same,"viability, T/C",[16],111%
same,"viability, T/C",[17],109%
same,"viability, T/C",[18],94%
same,"viability, T/C",[19],103%
same,"viability, T/C",[20],104%
same,"viability, T/C",[21],108%
same,"viability, T/C",[22],107%
same,"viability, T/C",[23],110%
same,"viability, T/C",[24],102%
same,"viability, T/C",[25],108%
same,"viability, T/C",[26],103%
same,"viability, T/C",[27],108%
same,"viability, T/C",[28],115%
same,"viability, T/C",[29],108%
same,"viability, T/C",[30],87.4%
same,"viability, T/C",[31],93.5%
same,"viability, T/C",[32],111%
same,"viability, T/C",[33],96.9%
same,"viability, T/C",[34],112%
same,"viability, T/C",[35],103%
same,"viability, T/C",[36],81.5%
same,"viability, T/C",[37],96.5%
same,"viability, T/C",[38],93.6%
same,"viability, T/C",[39],108%
same,"viability, T/C",[40],101%
same,"viability, T/C",[41],97.6%
same,"viability, T/C",[42],87.4%
CC1COCCN1c1cc(C2(O)CC3CCC(C2)O3)c2cnn(-c3ccn[nH]3)c2n1 (stereo unspecified) + COC1C(OC(N)=O)C(O)C(Oc2ccc3c(O)c(NC(=O)c4ccc(O)c(CC=C(C)C)c4)c(=O)oc3c2C)OC1(C)C,IC50,[1],2580 nM
same,IC50,[2],2620 nM
same,IC50,[3],2080 nM
same,IC50,[4],1920 nM
same,IC50,[5],1840 nM
same,IC50,[6],1250 nM
same,"viability, T/C",[7],97%
same,"viability, T/C",[8],89.6%
same,"viability, T/C",[9],67.5%
same,"viability, T/C",[10],58.4%
same,"viability, T/C",[11],48.7%
same,"viability, T/C",[12],45.1%
same,"viability, T/C",[13],95.1%
same,"viability, T/C",[14],86.9%
same,"viability, T/C",[15],68.4%
same,"viability, T/C",[16],58.3%
same,"viability, T/C",[17],46.9%
same,"viability, T/C",[18],46.8%
same,"viability, T/C",[19],99%
same,"viability, T/C",[20],83.1%
same,"viability, T/C",[21],69.9%
same,"viability, T/C",[22],56.8%
same,"viability, T/C",[23],42.2%
same,"viability, T/C",[24],46.3%
same,"viability, T/C",[25],93.6%
same,"viability, T/C",[26],89.5%
same,"viability, T/C",[27],66.5%
same,"viability, T/C",[28],56.1%
same,"viability, T/C",[29],48.2%
same,"viability, T/C",[30],42.4%
same,"viability, T/C",[31],89.2%
same,"viability, T/C",[32],85%
same,"viability, T/C",[33],65.3%
same,"viability, T/C",[34],54.3%
same,"viability, T/C",[35],47.9%
same,"viability, T/C",[36],45.5%
same,"viability, T/C",[37],89.1%
same,"viability, T/C",[38],87.4%
same,"viability, T/C",[39],66.4%
same,"viability, T/C",[40],52.5%
same,"viability, T/C",[41],46.7%
same,"viability, T/C",[42],44.8%
CCc1c2c(nc3ccc(O)cc13)-c1cc3c(c(=O)n1C2)COC(=O)[C@]3(O)CC,"viability, T/C",compound 0.00316 µM,95.8% and 83.5% and 94.6%
same,"viability, T/C",compound 0.01 µM,85% and 74.5% and 81%
same,"viability, T/C",compound 0.0316 µM,71.9% and 75.1% and 71.4%
same,"viability, T/C",compound 0.1 µM,72.1% and 79.6% and 64.2%
same,"viability, T/C",compound 0.316 µM,63.3% and 81% and 57.8%
same,"viability, T/C",compound 1 µM,40.5% and 58.2% and 35.7%
same,IC50,curve of compound,627 nM and > 1000 nM and 375 nM
